Assay results taken from patent US20230021483A1, “[…] […] METHOD AND CLASSIFICATION OF PHARMACEUTICAL COMPONENTS BY USING TRANSCRIPTOMES” (National Institutes of Biomedical Innovation, Health and …, priority 2016, published 2023).

Legend:
[1] = tested on: inguinal lymph nodes (LN); assay: Whole organ transcriptome (GeneChip microarray) of draining inguinal lymph nodes 6 h after adjuvant administration: sDEGs, gene modules, hierarchical clustering; format: in vivo, C57BL/6 mice; details: lymph node; for adjuvant group (cluster) in LN: key: G1 (interferon signaling); G2 (metabolism of lipids and lipoproteins); G3 (response to stress); G4 (response to wounding); G5 (phosphate-containing compound metabolic process); G6 (phagosome)
[2] = tested on: preferentially upregulated genes in LV, SP, LN; assay: Z-score-based differential gene expression analysis (adjuvant group- or adjuvant-associated genes, 40 module mapping, TargetMine annotation); format: in vivo, C57BL/6 mice; details: ID, LV
How it was run: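 Per-sample fold-change values converted to gene-wise z-scores within each organ's data set, then triplicate z-scores summed per adjuvant. Genes with summed score >3 taken as preferentially expressed; gene groups defined by combined per-adjuvant z-score thresholds (z>1 to z>3) specific to each organ.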

For Monophosphoryl lipid A [MPLA], the “adjuvant group (cluster) in LN” value ([1]; hierarchical clustering) was “G1”, the “Number of gene probes with statistically significant changes (sDEGs), LN, Down” value ([1]; i.d. administration, fold change <0.667, p<0.01, customized PA call=1, 6 h after adjuvant) was 18 and the “Number of gene probes with statistically significant changes (sDEGs), LN, Up” value ([1]; i.d. administration, fold change >1.5, p<0.01, customized PA call=1, 6 h after adjuvant) was 8. For the same substance, the “Adar 1425405_a_at (Group G1, Modules 20)” value ([2]; sample x1) was −0.2, the “Adar 1434268_at (Group G1, Modules 20)” value ([2]; sample x1) was −0 and the “Ddx58 1436562_at (Group G1, Modules 20)” value ([2]; sample x1) was −0.3. The “Ddx58 1456890_at (Group G1, Modules 20)” value ([2]; sample x1) was −0.2, the “Eif2ak2 1422005_at (Group G1, Modules 20)” value (shortened to “Eif2ak2 1422005_at”) ([2]; sample x1) was −0.3 and the “G3bp2 1421323_a_at (Group G1, Modules 20)” value (from here on “G3bp2 1421323_a_at”) ([2]; sample x1) was −0.3. The “Gm9706///Isg15 1431591_s_at (Group G1, Modules 20)” value (“Gm9706///Isg15 1431591_s_at” for short) ([2]; sample x1) was −0.5, the “H2-T10///H2-T22///H2-T9 1449875_s_at (Group G1, Modules 20)” value (from here on “H2-T10///H2-T22///H2-T9 1449875_s_at”) ([2]; sample x1) was −0.3 and the “Ifih1 1426276_at (Group G1, Modules 20)” value ([2]; sample x1) was −0.4. The “Ifit1 1450783_at (Group G1, Modules 20)” value ([2]; sample x1) was −0.5, the “Ifit3 1449025_at (Group G1, Modules 20)” value ([2]; sample x1) was −0.5 and the “Irf7 1417244_a_at (Group G1, Modules 20)” value ([2]; sample x1) was −0.4. The “Irgm1 1418825_at (Group G1, Modules 20)” value ([2]; sample x1) was −0.4, the “Mndal 1426906_at (Group G1, Modules 20)” value ([2]; sample x1) was −0.2 and the “Pml 1448757_at (Group G1, Modules 20)” value ([2]; sample x1) was −0.4. The “Pml 1456103_at (Group G1, Modules 20)” value ([2]; sample x1) was −0.3, the “Rnf213 1455500_at (Group G1, Modules 20)” value ([2]; sample x1) was −0.4 and the “Rsad2 1436058_at (Group G1, Modules 20)” value ([2]; sample x1) was −0.5. The “Shisa5 1423986_a_at (Group G1, Modules 20)” value (shortened to “Shisa5 1423986_a_at”) ([2]; sample x1) was −0.2, the “Shisa5 1437503_a_at (Group G1, Modules 20)” value (shortened to “Shisa5 1437503_a_at”) ([2]; sample x1) was −0.3 and the “Stat1 1450033_a_at (Group G1, Modules 20)” value (shortened to “Stat1 1450033_a_at”) ([2]; sample x1) was −0.5. For the same substance, the “Stat1 1450034_at (Group G1, Modules 20)” value ([2]; sample x1) was −0.4, the “Tdrd7 1426716_at (Group G1, Modules 20)” value ([2]; sample x1) was −0.3 and the “Tor1aip2 1418115_s_at (Group G1, Modules 20)” value (from here on “Tor1aip2 1418115_s_at”) ([2]; sample x1) was −0.4. For the same substance, the “Tor1aip2 1418116_at (Group G1, Modules 20)” value (“Tor1aip2 1418116_at” below) ([2]; sample x1) was −0, the “Tor1aip2 1435526_at (Group G1, Modules 20)” value (“Tor1aip2 1435526_at” for short) ([2]; sample x1) was −0.2 and the “Trim12a 1437432_a_at (Group G1, Modules 20)” value (from here on “Trim12a 1437432_a_at”) ([2]; sample x1) was −0.4. For the same substance, the “Uba7 1426970_a_at (Group G1, Modules 20)” value ([2]; sample x1) was −0.1, the “Adar 1425405_a_at (Group G1, Modules 20)” value ([2]; sample x2) was −0.4 and the “Adar 1434268_at (Group G1, Modules 20)” value ([2]; sample x2) was −0.3. The “Ddx58 1436562_at (Group G1, Modules 20)” value ([2]; sample x2) was −0.4, the “Ddx58 1456890_at (Group G1, Modules 20)” value ([2]; sample x2) was −0.1 and the “Eif2ak2 1422005_at” value ([2]; sample x2) was −0.4. The “G3bp2 1421323_a_at” value ([2]; sample x2) was −0.6, the “Gm9706///Isg15 1431591_s_at” value ([2]; sample x2) was −0.5 and the “H2-T10///H2-T22///H2-T9 1449875_s_at” value ([2]; sample x2) was −0.3. For the same substance, the “Ifih1 1426276_at (Group G1, Modules 20)” value ([2]; sample x2) was −0.4, the “Ifit1 1450783_at (Group G1, Modules 20)” value ([2]; sample x2) was −0.5 and the “Ifit3 1449025_at (Group G1, Modules 20)” value ([2]; sample x2) was −0.5. The “Irf7 1417244_a_at (Group G1, Modules 20)” value ([2]; sample x2) was −0.5, the “Irgm1 1418825_at (Group G1, Modules 20)” value ([2]; sample x2) was −0.5 and the “Mndal 1426906_at (Group G1, Modules 20)” value ([2]; sample x2) was −0.4. For the same substance, the “Pml 1448757_at (Group G1, Modules 20)” value ([2]; sample x2) was −0.3, the “Pml 1456103_at (Group G1, Modules 20)” value ([2]; sample x2) was −0.4 and the “Rnf213 1455500_at (Group G1, Modules 20)” value ([2]; sample x2) was −0.5. The “Rsad2 1436058_at (Group G1, Modules 20)” value ([2]; sample x2) was −0.5, the “Shisa5 1423986_a_at” value ([2]; sample x2) was −0.4 and the “Shisa5 1437503_a_at” value ([2]; sample x2) was −0.3. For the same substance, the “Stat1 1450033_a_at” value ([2]; sample x2) was −0.5, the “Stat1 1450034_at (Group G1, Modules 20)” value ([2]; sample x2) was −0.5 and the “Tdrd7 1426716_at (Group G1, Modules 20)” value ([2]; sample x2) was −0.3. For the same substance, the “Tor1aip2 1418115_s_at” value ([2]; sample x2) was −0.4, the “Tor1aip2 1418116_at” value ([2]; sample x2) was −0.3 and the “Tor1aip2 1435526_at” value ([2]; sample x2) was −0.1. For the same substance, the “Trim12a 1437432_a_at” value ([2]; sample x2) was −0.6, the “Uba7 1426970_a_at (Group G1, Modules 20)” value ([2]; sample x2) was −0.2 and the “Adar 1425405_a_at (Group G1, Modules 20)” value ([2]; sample x3) was −0.6. The “Adar 1434268_at (Group G1, Modules 20)” value ([2]; sample x3) was −0.3, the “Ddx58 1436562_at (Group G1, Modules 20)” value ([2]; sample x3) was −0.5 and the “Ddx58 1456890_at (Group G1, Modules 20)” value ([2]; sample x3) was −0.4. For the same substance, the “Eif2ak2 1422005_at” value ([2]; sample x3) was −0.4, the “G3bp2 1421323_a_at” value ([2]; sample x3) was −0.5 and the “Gm9706///Isg15 1431591_s_at” value ([2]; sample x3) was −0.5. The “H2-T10///H2-T22///H2-T9 1449875_s_at” value ([2]; sample x3) was −0.4, the “Ifih1 1426276_at (Group G1, Modules 20)” value ([2]; sample x3) was −0.4 and the “Ifit1 1450783_at (Group G1, Modules 20)” value ([2]; sample x3) was −0.5. For the same substance, the “Ifit3 1449025_at (Group G1, Modules 20)” value ([2]; sample x3) was −0.5, the “Irf7 1417244_a_at (Group G1, Modules 20)” value ([2]; sample x3) was −0.5 and the “Irgm1 1418825_at (Group G1, Modules 20)” value ([2]; sample x3) was −0.6. The “Mndal 1426906_at (Group G1, Modules 20)” value ([2]; sample x3) was −0.5, the “Pml 1448757_at (Group G1, Modules 20)” value ([2]; sample x3) was −0.4 and the “Pml 1456103_at (Group G1, Modules 20)” value ([2]; sample x3) was −0.3. The “Rnf213 1455500_at (Group G1, Modules 20)” value ([2]; sample x3) was −0.5, the “Rsad2 1436058_at (Group G1, Modules 20)” value ([2]; sample x3) was −0.5 and the “Shisa5 1423986_a_at” value ([2]; sample x3) was −0.3. The “Shisa5 1437503_a_at” value ([2]; sample x3) was −0.4, the “Stat1 1450033_a_at” value ([2]; sample x3) was −0.6 and the “Stat1 1450034_at (Group G1, Modules 20)” value ([2]; sample x3) was −0.5. The “Tdrd7 1426716_at (Group G1, Modules 20)” value ([2]; sample x3) was −0.4, the “Tor1aip2 1418115_s_at” value ([2]; sample x3) was −0.6 and the “Tor1aip2 1418116_at” value ([2]; sample x3) was −0.2. For the same substance, the “Tor1aip2 1435526_at” value ([2]; sample x3) was −0.5, the “Trim12a 1437432_a_at” value ([2]; sample x3) was −0.5 and the “Uba7 1426970_a_at (Group G1, Modules 20)” value ([2]; sample x3) was −0.6.
